ChEMBL document CHEMBL3272080, “Analogues of luteinizing hormone releasing factor modified at positions 2, 6, and 10” (J Med Chem, 1976)
*1 amine or outer side, *2 acyl side, *3 side chain or, on linkers, in order; H or OH if unused. Where a SMILES comes first, the peptide text is derived from it. [ ]: non-standard residue; d: D form. X1 = CCCCCCCCCCCCNCCC[C@@H](N[*:1])C(=O)[*:2]; pGlu = O=C1CC[C@@H](C(=O)O)N1

Columns and labels:
[1] = Retardation factor in 1-butanol-ethyl acetate-acetic acid-water at 1:1:1:1 ratio by TLC; format: physicochemical; details: buffer
[2] = Retardation factor in 2-butanol-0.1 N acetic acid at 1:1 ratio by TLC; format: physicochemical
[3] = Retardation factor in ethyl acetate-pyridine-acetic acid-water at 5:5:1:3 ratio by TLC; format: physicochemical; details: buffer
[4] = Retardation factor in 1-butanol-pyridine-0.1% acetic acid at 5:3:11 ratio by TLC; format: physicochemical
[5] = Retardation factor in 2-butanol-0.1 N ammonium hydroxide at 1:1 ratio by TLC; format: physicochemical
[6] = Retardation factor in 1-butanol-acetic acid-water at 4:1:5 ratio by TLC; format: physicochemical; details: buffer
[7] = Retardation factor in 1-butanol-2-propanol-1 N ammonium hydroxide-ethyl acetate at 1:1:2.5:1 ratio by TLC; format: physicochemical
[8] = Inhibition of LRF-induced luteinizing hormone secretion in rat anterior pituitary cells relative to [des-His2,D-Ala6]-LRF; format: functional, Pituitary gland cell
[9] = Retardation factor in 2-butanol-water at 1:1 ratio by TLC; format: physicochemical; details: buffer
[10] = Increase in luteinizing hormone secretion in rat anterior pituitary cells relative to luteinizing hormone releasing factor; format: functional, Pituitary gland cell

Structure (SMILES) | Rf [1] | Rf [2] | Rf [3] | Rf [4] | Rf [5] | Rf [6] | Rf [7] | fold change (FC) [8] | Rf [9] | fold change (FC) [10]
CCCCCCCCCCCCNCCC[C@@H](NC(=O)[C@H](Cc1ccc(O)cc1)NC(=O)[C@H](CO)NC(=O)[C@H](Cc1c[nH]c2ccccc12)NC(=O)[C@@H]1CCC(=O)N1)C(=O)N[C@@H](CC(C)C)C(=O)N[C@@H](CCCNC(=N)N)C(=O)N1CCC[C@H]1C(=O)NCC ([pGlu]WSY[X1]LRP-NHEt) | 0.84 | 0.51 | 0.55 | 0.71 | 0.46 | 0.64 | 0.49 | 153 | 0.47 | 
CCNC(=O)[C@@H]1CCCN1C(=O)[C@H](CCCNC(=N)N)NC(=O)[C@H](CC(C)C)NC(=O)[C@@H](CCCN)NC(=O)[C@H](Cc1ccc(O)cc1)NC(=O)[C@H](CO)NC(=O)[C@H](Cc1c[nH]c2ccccc12)NC(=O)[C@H](Cc1cnc[nH]1)NC(=O)[C@@H]1CCC(=O)N1 | 0.65 | 0.29 | 0.69 | 0.47 |  | 0.26 | 0.34 |  |  | 682
CCNC(=O)[C@@H]1CCCN1C(=O)[C@H](CCCNC(=N)N)NC(=O)[C@H](CC(C)C)NC(=O)[C@@H](CCCCN)NC(=O)[C@H](Cc1ccc(O)cc1)NC(=O)[C@H](CO)NC(=O)[C@H](Cc1c[nH]c2ccccc12)NC(=O)[C@@H]1CCC(=O)N1 | 0.76 | 0.35 | 0.71 | 0.59 |  | 0.49 | 0.37 | 97 | 0.31 | 
CC(C)C[C@H](NC(=O)[C@@H](CCCCN)NC(=O)[C@H](Cc1ccc(O)cc1)NC(=O)[C@H](CO)NC(=O)[C@H](Cc1c[nH]c2ccccc12)NC(=O)[C@H](Cc1cnc[nH]1)NC(=O)[C@@H]1CCC(=O)N1)C(=O)N[C@@H](CCCNC(=N)N)C(=O)N1CCC[C@H]1C(=O)NCC(N)=O | 0.57 | 0.24 | 0.58 | 0.42 |  | 0.31 | 0.24 |  |  | 383
CC(=O)NCCCC[C@@H](NC(=O)[C@H](Cc1ccc(O)cc1)NC(=O)[C@H](CO)NC(=O)[C@H](Cc1c[nH]c2ccccc12)NC(=O)[C@H](Cc1cnc[nH]1)NC(=O)[C@@H]1CCC(=O)N1)C(=O)N[C@@H](CC(C)C)C(=O)N[C@@H](CCCNC(=N)N)C(=O)N1CCC[C@H]1C(=O)NCC(N)=O | 0.73 | 0.34 | 0.69 | 0.56 | 0.33 | 0.39 | 0.43 |  | 0.34 | 274
CC(=O)NCCC[C@@H](NC(=O)[C@H](Cc1ccc(O)cc1)NC(=O)[C@H](CO)NC(=O)[C@H](Cc1c[nH]c2ccccc12)NC(=O)[C@H](Cc1cnc[nH]1)NC(=O)[C@@H]1CCC(=O)N1)C(=O)N[C@@H](CC(C)C)C(=O)N[C@@H](CCCNC(=N)N)C(=O)N1CCC[C@H]1C(=O)NCC(N)=O | 0.7 | 0.34 | 0.66 | 0.57 | 0.34 | 0.38 | 0.43 |  | 0.33 | 101
CC(C)C[C@H](NC(=O)[C@@H](CCCCN)NC(=O)[C@H](Cc1ccc(O)cc1)NC(=O)[C@H](CO)NC(=O)[C@H](Cc1c[nH]c2ccccc12)NC(=O)[C@@H]1CCC(=O)N1)C(=O)N[C@@H](CCCNC(=N)N)C(=O)N1CCC[C@H]1C(=O)NCC(N)=O ([pGlu]WSY[dK]LRPG-NH2) | 0.73 | 0.33 | 0.71 | 0.47 |  | 0.35 | 0.26 | 123 | 0.25 | 
CCCCCCCCCCCCNCCCC[C@@H](NC(=O)[C@H](Cc1ccc(O)cc1)NC(=O)[C@H](CO)NC(=O)[C@H](Cc1c[nH]c2ccccc12)NC(=O)[C@H](Cc1cnc[nH]1)NC(=O)[C@@H]1CCC(=O)N1)C(=O)N[C@@H](CC(C)C)C(=O)N[C@@H](CCCNC(=N)N)C(=O)N1CCC[C@H]1C(=O)NCC | 0.72 | 0.43 | 0.4 | 0.61 | 0.38 | 0.42 | 0.47 |  | 0.39 | 1038
CCCCCCCCCCCCNCCC[C@@H](NC(=O)[C@H](Cc1ccc(O)cc1)NC(=O)[C@H](CO)NC(=O)[C@H](Cc1c[nH]c2ccccc12)NC(=O)[C@H](Cc1cnc[nH]1)NC(=O)[C@@H]1CCC(=O)N1)C(=O)N[C@@H](CC(C)C)C(=O)N[C@@H](CCCNC(=N)N)C(=O)N1CCC[C@H]1C(=O)NCC(N)=O | 0.72 | 0.39 | 0.34 | 0.59 | 0.36 | 0.4 | 0.43 |  | 0.38 | 290
CC(C)C[C@H](NC(=O)[C@@H](CCCN)NC(=O)[C@H](Cc1ccc(O)cc1)NC(=O)[C@H](CO)NC(=O)[C@H](Cc1c[nH]c2ccccc12)NC(=O)[C@H](Cc1cnc[nH]1)NC(=O)[C@@H]1CCC(=O)N1)C(=O)N[C@@H](CCCNC(=N)N)C(=O)N1CCC[C@H]1C(=O)NCC(N)=O | 0.62 | 0.24 | 0.6 | 0.45 |  | 0.35 | 0.25 |  |  | 182
CCCCCCCCCCCCNCCC[C@@H](NC(=O)[C@H](Cc1ccc(O)cc1)NC(=O)[C@H](CO)NC(=O)[C@H](Cc1c[nH]c2ccccc12)NC(=O)[C@@H]1CCC(=O)N1)C(=O)N[C@@H](CC(C)C)C(=O)N[C@@H](CCCNC(=N)N)C(=O)N1CCC[C@H]1C(=O)NCC(N)=O ([pGlu]WSY[X1]LRPG-NH2) | 0.78 | 0.47 | 0.48 | 0.67 | 0.43 | 0.53 | 0.44 | 278 | 0.45 | 
CCCCCCCCCCCCNCCCC[C@@H](NC(=O)[C@H](Cc1ccc(O)cc1)NC(=O)[C@H](CO)NC(=O)[C@H](Cc1c[nH]c2ccccc12)NC(=O)[C@@H]1CCC(=O)N1)C(=O)N[C@@H](CC(C)C)C(=O)N[C@@H](CCCNC(=N)N)C(=O)N1CCC[C@H]1C(=O)NCC(N)=O | 0.78 | 0.46 | 0.48 | 0.66 | 0.43 | 0.52 | 0.44 | 284 | 0.44 | 
CCCCCCCCCCCCNCCC[C@@H](NC(=O)[C@H](Cc1ccc(O)cc1)NC(=O)[C@H](CO)NC(=O)[C@H](Cc1c[nH]c2ccccc12)NC(=O)[C@H](Cc1cnc[nH]1)NC(=O)[C@@H]1CCC(=O)N1)C(=O)N[C@@H](CC(C)C)C(=O)N[C@@H](CCCNC(=N)N)C(=O)N1CCC[C@H]1C(=O)NCC | 0.72 | 0.43 | 0.38 | 0.62 | 0.37 | 0.45 | 0.46 |  | 0.4 | 490
CCCCCCCCCCCCNCCCC[C@@H](NC(=O)[C@H](Cc1ccc(O)cc1)NC(=O)[C@H](CO)NC(=O)[C@H](Cc1c[nH]c2ccccc12)NC(=O)[C@@H]1CCC(=O)N1)C(=O)N[C@@H](CC(C)C)C(=O)N[C@@H](CCCNC(=N)N)C(=O)N1CCC[C@H]1C(=O)NCC | 0.83 | 0.52 | 0.53 | 0.73 | 0.45 | 0.63 | 0.47 | 276 | 0.46 | 
CCNC(=O)[C@@H]1CCCN1C(=O)[C@H](CCCNC(=N)N)NC(=O)[C@H](CC(C)C)NC(=O)[C@@H](CCCCN)NC(=O)[C@H](Cc1ccc(O)cc1)NC(=O)[C@H](CO)NC(=O)[C@H](Cc1c[nH]c2ccccc12)NC(=O)[C@H](Cc1cnc[nH]1)NC(=O)[C@@H]1CCC(=O)N1 | 0.66 | 0.27 | 0.63 | 0.53 |  | 0.4 | 0.31 |  |  | 1726
CC(C)C[C@H](NC(=O)[C@@H](CCCN)NC(=O)[C@H](Cc1ccc(O)cc1)NC(=O)[C@H](CO)NC(=O)[C@H](Cc1c[nH]c2ccccc12)NC(=O)[C@@H]1CCC(=O)N1)C(=O)N[C@@H](CCCNC(=N)N)C(=O)N1CCC[C@H]1C(=O)NCC(N)=O | 0.74 | 0.31 | 0.67 | 0.54 |  | 0.46 | 0.28 | 134 | 0.24 | 
CCCCCCCCCCCCNCCCC[C@@H](NC(=O)[C@H](Cc1ccc(O)cc1)NC(=O)[C@H](CO)NC(=O)[C@H](Cc1c[nH]c2ccccc12)NC(=O)[C@H](Cc1cnc[nH]1)NC(=O)[C@@H]1CCC(=O)N1)C(=O)N[C@@H](CC(C)C)C(=O)N[C@@H](CCCNC(=N)N)C(=O)N1CCC[C@H]1C(=O)NCC(N)=O | 0.74 | 0.38 | 0.35 | 0.56 | 0.37 | 0.4 | 0.44 |  | 0.37 | 164
CCNC(=O)[C@@H]1CCCN1C(=O)[C@H](CCCNC(=N)N)NC(=O)[C@H](CC(C)C)NC(=O)[C@@H](CCCN)NC(=O)[C@H](Cc1ccc(O)cc1)NC(=O)[C@H](CO)NC(=O)[C@H](Cc1c[nH]c2ccccc12)NC(=O)[C@@H]1CCC(=O)N1 | 0.78 | 0.36 | 0.71 | 0.63 |  | 0.54 | 0.38 | 105 | 0.28 | 
